According to patent US20170296491A1, “PHARMACEUTICAL COMPOSITIONS COMPRISING LEVODOPA AMIDE AND USES THEREOF” (priority 2015, published 2017):
Structures can show the parent of a compound that is named as a salt.

Columns and labels:
[1] = Long term stability of LDA-HCl 200 mg/ml in citric buffer with NAC, 2 weeks at 37° C.; format: physicochemical
Procedure: Liquid formulation comprising LDA-HCl in citric buffer was prepared by dissolving 200 mg/ml LDA-HCl in 40 mM citric buffer with 0.05% N-acetylcysteine (NAC) as antioxidant. The formulation was incubated for 2 weeks at 37° C. The stability of LDA after 14 days at 37° C. was evaluated by HPLC analysis, and the recovery calculated compared to t0 (Table 5).

[2] = Physical stability (visual) of LDA-HCl 50 mg/ml in water or buffers at room temperature; format: physicochemical; details: for Color at T = 24 h (RT): 50 mg/ml; for time physically stable at room temperature: 5% LDA-HCl and water or a buffer
Procedure: (§1) Liquid formulations were prepared by dissolving LDA-HCl, 50 mg/ml in water or different buffers (40 mM) at various pH levels. The physical stability of LDA was determined visually after 24 hours and 7 days (Table 3), and the chemical stability of LDA was determined by HPLC analysis (Table 4) after 24 h at room temperature (RT) and expressed as % recovery compared to t0.

[3] = Physical stability of LDA-HCl solutions with or without added CD-Arg formulation; format: physicochemical; details: preferably pH >4.6
Procedure: HCl solutions at 3 different concentrations containing 0.3% Tween 80 were added to LDA to obtain solutions having a final LDA concentration of 200 mg/ml and a molar ratio of 1:0.89, 1:0.92 and 1:0.95 LDA:HCl. CD-Arg formulation (CD:Arg molar ratio 1:1.25) was prepared in Tween 80 0.3% and was added gradually under stirring to 4 volumes of each of the 3 LDA-HCl solutions. The physical stability of the solutions was evaluated (Table 15). As shown, the addition of CD to LDA-HCl solutions yielded stable solutions if added to LDA-HCl solutions having a pH>3.8, preferably pH >4.6.

[4] = Stability of LDA-HCl 50 mg/ml in citrate or phosphate buffer, 4 days at 37° C., HPLC; format: physicochemical
Procedure: Liquid formulations were prepared by dissolving LDA-HCl, 50 mg/ml in buffer citrate or buffer phosphate at different pH levels (Table 2). The formulations were incubated 4 days at 37° C., their stability was evaluated by HPLC analysis at the end of the fourth day, and the recovery after 4 days at 37° C. was calculated compared to T=0.

[5] = Chemical stability (HPLC) of LDA-HCl 50 mg/ml in water or buffers after 24 h at room temperature; format: physicochemical
Procedure: as §1

[6] = Effect of preparation method and pH on stability of LDA-HCl/CD formulations; format: physicochemical; details: 5 days at room temperature (Table 7)
Procedure: LDA-HCl/CD formulations were prepared by the following methods, and were then tested for stability. Method 1. Carbidopa (CD, powder) [Teva Pharmaceuticals Ltd., Israel] was added to LDA-HCl solution. […] Precipitation occurred at room temperature. Method 2. Liquid CD formulations were prepared by weighting CD [Teva Pharmaceuticals Ltd., Israel] in a suitable container with different L-arginine [Merck] weights to obtain a final concentration of 0.8% CD (wet form, 0.75% dry form) in different molar ratios to arginine (Table 6). CD formulations were prepared as described in the International Publication No. WO 2010/134074. LDA-HCl (powder) was added to CD solutions to attain the final desired concentration of LDA-HCl/CD formulations. Method 3. CD solutions (40 mg/ml, prepared as described in the International Publication No. WO 2010/134074) were mixed with LDA-HCl solutions to attain the final desired concentration of LDA/CD formulations. The LDA-HCl formulations were prepared by dissolving 200, 160 or 120 mg/ml of LDA-HCl in 40 mM citric buffer. The chemical stability of 7 LDA-HCl/CD formulations was evaluated by HPLC analysis at t0 and after 5 days at room temperature. The recovery after 5 days at room temperature was calculated compared to t0 (Table 7).

[7] = Plasma pharmacokinetics of LDA and LD after oral LDA-HCl with and without CD in rats; format: in vivo; details: oral LDA-HCl 25 mg/kg with or without oral 10 mg/kg CD
Procedure: The purpose of this experiment was to determine the plasma pharmacokinetics of LDA and LD following oral administration of LD or LDA-HCl with and without CD in Wistar rats.
Wistar rats underwent fasting overnight prior to the dosing and received food only 2 hour post-dosing. The method used to dose orally was via oesophagotubage. Solutions were prepared as described above.

[8] = 200 mg/ml LDA-HCl, 40 mM citric buffer, 0.05% NAC

Compound: NC(=O)C(N)Cc1ccc(O)c(O)c1 (stereo not drawn) [LDA-HCl, 2-amino-3-(3,4-dihydroxyphenyl)propanamide]
- LDA content at T = 0 [1, 8]: 18.69
- LDA content at T = 2 w, 37° C. [1, 8]: 19.01
- time stable ([1]; high concentrations of LDA-HCl and NAC in citric buffer): at least 14 days
- Color at T = 24 h (RT) ([2]; Acetate pH 3.76): light yellow
- Color at T = 24 h (RT) ([2]; Acetate pH 4.72): light yellow
- Color at T = 24 h (RT) ([2]; Citrate pH 3.09): light yellow
- Color at T = 24 h (RT) ([2]; Citrate pH 3.90): light yellow
- Color at T = 24 h (RT) ([2]; Citrate pH 4.85): light yellow
- Color at T = 24 h (RT) ([2]; Citrate pH 5.65): medium yellow
- Color at T = 24 h (RT) ([2]; Histidine pH 6.20): medium yellow
- Color at T = 24 h (RT) ([2]; Phosphate pH 6.03): medium yellow
- Color at T = 24 h (RT) ([2]; Phosphate pH 6.32): medium yellow
- Color at T = 24 h (RT) ([2]; Tartrate pH 3.84): light yellow
- Color at T = 24 h (RT) ([2]; Tris pH 5.39): light yellow
- Color at T = 24 h (RT) ([2]; Tris pH 6.14): medium yellow
- Color at T = 24 h (RT) ([2]; Tris pH 6.61): medium yellow
- Color at T = 24 h (RT) ([2]; Water for injection (WFI) pH 3.56): light yellow
- Color at T = 24 h (RT) ([2]; Water for injection (WFI) pH 4.14): light yellow
- Color at T = 24 h (RT) ([2]; Water for injection (WFI) pH 4.95): light yellow
- Color at T = 24 h (RT) ([2]; Water for injection (WFI) pH 5.93): medium yellow
- Color at T = 24 h (RT) ([2]; Water for injection (WFI) pH 6.44): medium yellow
- Color at T = 24 h (RT) ([2]; Water for injection (WFI) pH 6.91): strong yellow
- time physically stable at room temperature ([2]; all conditions tested): 24 h
- time physically stable at room temperature ([2]; only formulations having a pH<5.5): at least 7 days
- pH of LDA-HCl solution at which addition of CD yielded stable solutions [3]: > 3.8
- stability at 37° C. ([4]; in buffer phosphate at pH>5.7): not stable
- time stable at 37° C. ([4]; in citrate buffer): at least 4 days
- time chemically stable at room temperature ([5]; 5% LDA-HCl and water or a buffer, pH ranging between 3 to 7): at least 24 h
- LDA (mg/ml) at T = 0 ([5]; Acetate pH 3.76): 52.09 mg/mL
- LDA (mg/ml) at T = 24 hr (RT) ([5]; Acetate pH 3.76): 52.41 mg/mL
- LDA (mg/ml) at T = 0 ([5]; Acetate pH 4.72): 52.66 mg/mL
- LDA (mg/ml) at T = 24 hr (RT) ([5]; Acetate pH 4.72): 53.05 mg/mL
- LDA (mg/ml) at T = 0 ([5]; Citrate pH 3.09): 51.84 mg/mL
- LDA (mg/ml) at T = 24 hr (RT) ([5]; Citrate pH 3.09): 52.09 mg/mL
- LDA (mg/ml) at T = 0 ([5]; Citrate pH 3.9): 51.34 mg/mL
- LDA (mg/ml) at T = 24 hr (RT) ([5]; Citrate pH 3.9): 51.7 mg/mL
- LDA (mg/ml) at T = 0 ([5]; Citrate pH 4.85): 52.05 mg/mL
- LDA (mg/ml) at T = 24 hr (RT) ([5]; Citrate pH 4.85): 52.75 mg/mL
- LDA (mg/ml) at T = 0 ([5]; Citrate pH 5.65): 51.24 mg/mL
- LDA (mg/ml) at T = 24 hr (RT) ([5]; Citrate pH 5.65): 51.03 mg/mL
- LDA (mg/ml) at T = 0 ([5]; Histidine pH 6.2): 51.27 mg/mL
- LDA (mg/ml) at T = 24 hr (RT) ([5]; Histidine pH 6.2): 51.76 mg/mL
- LDA (mg/ml) at T = 0 ([5]; Phosphate pH 6.03): 51.32 mg/mL
- LDA (mg/ml) at T = 24 hr (RT) ([5]; Phosphate pH 6.03): 51.36 mg/mL
- LDA (mg/ml) at T = 0 ([5]; Phosphate pH 6.32): 52.05 mg/mL
- LDA (mg/ml) at T = 24 hr (RT) ([5]; Phosphate pH 6.32): 51.82 mg/mL
- LDA (mg/ml) at T = 0 ([5]; Tartrate pH 3.84): 52.46 mg/mL
- LDA (mg/ml) at T = 24 hr (RT) ([5]; Tartrate pH 3.84): 52.26 mg/mL
- LDA (mg/ml) at T = 0 ([5]; Tris pH 5.39): 51.88 mg/mL
- LDA (mg/ml) at T = 24 hr (RT) ([5]; Tris pH 5.39): 52.08 mg/mL
- LDA (mg/ml) at T = 0 ([5]; Tris pH 6.14): 51.79 mg/mL
- LDA (mg/ml) at T = 24 hr (RT) ([5]; Tris pH 6.14): 51.73 mg/mL
- LDA (mg/ml) at T = 0 ([5]; Tris pH 6.61): 51.62 mg/mL
- LDA (mg/ml) at T = 24 hr (RT) ([5]; Tris pH 6.61): 51.74 mg/mL
- LDA (mg/ml) at T = 0 ([5]; WFI pH 3.56): 51.91 mg/mL
- LDA (mg/ml) at T = 24 hr (RT) ([5]; WFI pH 3.56): 51.34 mg/mL
- LDA (mg/ml) at T = 0 ([5]; WFI pH 4.14): 51.3 mg/mL
- LDA (mg/ml) at T = 24 hr (RT) ([5]; WFI pH 4.14): 51.57 mg/mL
- LDA (mg/ml) at T = 0 ([5]; WFI pH 4.95): 51.07 mg/mL
- LDA (mg/ml) at T = 24 hr (RT) ([5]; WFI pH 4.95): 50.23 mg/mL
- LDA (mg/ml) at T = 0 ([5]; WFI pH 5.93): 51.32 mg/mL
- LDA (mg/ml) at T = 24 hr (RT) ([5]; WFI pH 5.93): 50.5 mg/mL
- LDA (mg/ml) at T = 0 ([5]; WFI pH 6.44): 51.24 mg/mL
- LDA (mg/ml) at T = 24 hr (RT) ([5]; WFI pH 6.44): 50.33 mg/mL
- LDA (mg/ml) at T = 0 ([5]; WFI pH 6.91): 51.05 mg/mL
- LDA (mg/ml) at T = 24 hr (RT) ([5]; WFI pH 6.91): 49.54 mg/mL

Compound: C[C@@](Cc1ccc(O)c(O)c1)(NN)C(=O)O [CD, Carbidopa]
- chemical stability in LDA-HCl/CD formulations [6]: pH-dependent
- effect of CD on plasma concentration of LD [7]: increases
- effect of CD on plasma concentrations of LDA [7]: no effect
